In brackets after ≈: the same amount, converted by molar mass.
Key:
[1] = Approximate solubility of Zileuton in various solvents/vehicles; format: physicochemical
Experimental: Solubility of Zileuton in Various Solvents
Approximately solubility of the Zileuton was measured in different vehicles. Semi-soild and waxy solid excipients were melted and tested at 50° C. or 70° C.

[2] = system: phorbol ester induced ear edema in ICR mice; assay: Phorbol ester induced ear edema test; format: in vivo
Experimental: Phorbol Ester Induced Ear Edema Test
The effect of Zileuton-containing formulations on phorbol ester induced ear edema in ICR mice was evaluated. One hundred and twenty (120) female ICR mice were assigned to eleven (11) groups by randomization with BioBook software to achieve similar mean weight and right ear thickness baseline among groups. Mice were terminated by 95% CO2 asphyxiation and then cervical dislocation.
Totally nine (9) Zileuton-containing formulations which are SO13, SO17, WB6, Gel-10, Gel-11, LO3, LO13, SPC19 and Zileuton 1.0% cream were selected for the tests Dexamethasone were used for the reference and Acetone was treated to the vehicle group.
Mice were anesthetized with 2-5 isoflurane. The mice were sensitized by painting 5 μg of phorbol ester dissolved in 0.02 mL of Acetone on ear inside and out. […] Six (6) hours after the modeling, the both side's ear thickness were measured after anesthetized by isoflurane (2-3%), respectively. Ear swelling response was determined by ear thickness measured with a micrometer before challenge and 6 hours after challenge and reported as the mean change in ear thickness (ΔT±S.E.M.). Percent suppression of ear swelling response was calculated as % suppression=[1−(ΔT of sensitized mice exposed to experimental treatment/ΔT of sensitized mice exposed to vehicle treatment)]×100.

In the case of CC(c1cc2ccccc2s1)N(O)C(N)=O (racemic) [Zileuton, (±)-1-(1-(benzo[b]thiophen-2-yl)ethyl)-1-hydroxyurea], the solubility ([1]; 25 mM sodium citrate buffer, 25 °C, pH 4, aqueous buffer, vehicle 25 mM sodium citrate buffer solution (pH = 4)) is reported as < 5 mg/mL, the solubility ([1]; 20% 2-Hydroxypropyl-β-cyclodextrin in water, 25 °C, aqueous with cosolvent or surfactant or cyclodextrin, vehicle 20% 2-Hydroxypropyl-β-cyclodextrin in water) is reported as 10 to 16.7 mg/mL (≈ 42.3 to 70.7 mM) and the solubility ([1]; 20% Poloxamer 188 in water, 25 °C, aqueous with cosolvent or surfactant or cyclodextrin, vehicle 20% Poloxamer 188 water) is reported as < 5 mg/mL. It also gave a solubility ([1]; 20% Sulfobutylether-β-cyclodextrin in water, 25 °C, aqueous with cosolvent or surfactant or cyclodextrin, vehicle 20% Sulfobutylether-β-cyclodextrin in water) of 10 to 16.7 mg/mL (≈ 42.3 to 70.7 mM), a solubility ([1]; 25 °C, pH 4, aqueous with cosolvent or surfactant or cyclodextrin, vehicle 20% 2-Hydroxypropyl-β-cyclodextrin in pH 4 sodium citrate buffer) of 10 to 16.7 mg/mL (≈ 42.3 to 70.7 mM) and a solubility ([1]; 25 °C, pH 4, aqueous with cosolvent or surfactant or cyclodextrin, vehicle 20% Sulfobutylether-β-cyclodextrin in pH 4 sodium citrate buffer) of 5 to 10 mg/mL (≈ 21.2 to 42.3 mM). It also gave a solubility ([1]; Beeswax polyethylene glycol-8, 70 °C, oil or lipid, vehicle Beeswax polyethylene glycol-8, 70° C.) of 15.7 to 25 mg/mL (≈ 66.4 to 106 mM), a solubility ([1]; Caprylic glycerides, 50 °C, oil or lipid, vehicle Caprylic glycerides) of 18.2 to 28.6 mg/mL (≈ 77 to 121 mM) and a solubility ([1]; Caprylocaproyl polyoxyl glycerides, 25 °C, oil or lipid, vehicle Caprylocaproyl polyoxyl glycerides) of 40 to 66.7 mg/mL (≈ 169 to 282 mM). The solubility ([1]; Castor oil, 25 °C, oil or lipid, vehicle Castor oil) was < 5 mg/mL, the solubility ([1]; Corn oil, 25 °C, oil or lipid, vehicle Corn oil) was < 5 mg/mL and the solubility ([1]; Diethylene glycol monoethyl ether, 25 °C, organic solvent or mixture, vehicle Diethylene glycol monoethyl ether) was > 200 mg/mL. The solubility ([1]; Dimethyl acetamide, 25 °C, organic solvent or mixture, vehicle Dimethyl acetamide) was 66.7 to 100 mg/mL (≈ 282 to 423 mM), the solubility ([1]; Dimethyl formamide, 25 °C, organic solvent or mixture, vehicle Dimethyl formamide) was 100 to 200 mg/mL (≈ 423 to 846 mM) and the solubility ([1]; Dimethyl sulfoxide, 25 °C, organic solvent or mixture, vehicle Dimethyl sulfoxide) was 100 to 200 mg/mL (≈ 423 to 846 mM). The solubility ([1]; Ethanol, 25 °C, organic solvent or mixture, vehicle Ethanol) was 40 to 50 mg/mL (≈ 169 to 212 mM), the solubility ([1]; Ethyl oleate, 25 °C, oil or lipid, vehicle Ethyl oleate) was < 5 mg/mL and the solubility ([1]; Ethylene glycol palmitostearate, 70 °C, oil or lipid, vehicle Ethylene glycol palmitostearate) was 50 to 100 mg/mL (≈ 212 to 423 mM). For the same compound, the solubility ([1]; Glycerin, 25 °C, organic solvent or mixture, vehicle Glycerin) was < 10 mg/mL, the solubility ([1]; Glyceryl mono and di stearate, 70 °C, oil or lipid, vehicle Glyceryl mono and di stearate) was 25 to 50 mg/mL (≈ 106 to 212 mM) and the solubility ([1]; Glyceryl monocaprate type I, 25 °C, oil or lipid, vehicle Glyceryl monocaprate type I) was 8.3 to 12.5 mg/mL (≈ 35.1 to 52.9 mM). For the same compound, the solubility ([1]; Glyceryl monolinoleate, 25 °C, oil or lipid, vehicle Glyceryl monolinoleate) was < 5 mg/mL, the solubility ([1]; Glyceryl monostearate, 70 °C, oil or lipid, vehicle Glyceryl monostearate) was 25 to 50 mg/mL (≈ 106 to 212 mM) and the solubility ([1]; Hexylene glycol, 25 °C, organic solvent or mixture, vehicle Hexylene glycol) was 25 to 50 mg/mL (≈ 106 to 212 mM). The solubility ([1]; Isopropyl myristate, 25 °C, oil or lipid, vehicle Isopropyl myristate) was < 5 mg/mL, the solubility ([1]; Lanolin, 70 °C, oil or lipid, vehicle Lanolin) was < 5 mg/mL and the solubility ([1]; Lauroyl polyoxyl-6 glycerides, 50 °C, oil or lipid, vehicle Lauroyl polyoxyl-6 glycerides) was < 10 mg/mL. For the same compound, the solubility ([1]; Lauroyl polyoxyl-32 glycerides, 50 °C, oil or lipid, vehicle Lauroyl polyoxyl-32 glycerides) was < 10 mg/mL, the solubility ([1]; Linoleoyl polyoxyl-6 glycerides, 25 °C, oil or lipid, vehicle Linoleoyl polyoxyl-6 glycerides) was < 5 mg/mL and the solubility ([1]; Liquid paraffin, 25 °C, oil or lipid, vehicle Liquid paraffin) was < 5 mg/mL. For the same compound, the solubility ([1]; Medium chain triglycerides, 25 °C, oil or lipid, vehicle Medium chain triglycerides) was < 5 mg/mL, the solubility ([1]; N-methyl-2-pyrrolidone, 25 °C, organic solvent or mixture, vehicle N-methyl-2-pyrrolidone) was > 200 mg/mL and the solubility ([1]; Oleic acid, 25 °C, oil or lipid, vehicle Oleic acid) was < 5 mg/mL. The solubility ([1]; Oleoyl polyoxyl-6 glycerides, 25 °C, oil or lipid, vehicle Oleoyl polyoxyl-6 glycerides) was < 5 mg/mL, the solubility ([1]; Olive oil, 25 °C, oil or lipid, vehicle Olive oil) was < 5 mg/mL and the solubility ([1]; Paraffin, 70 °C, oil or lipid, vehicle Paraffin) was < 5 mg/mL. For the same compound, the solubility ([1]; Peceol, 25 °C, oil or lipid, vehicle Peceol) was < 5 mg/mL, the solubility ([1]; Poly-oxyethylene esters of 12-hydroxystearic acid, 50 °C, organic solvent or mixture, vehicle Poly-oxyethylene esters of 12-hydroxystearic acid) was 40 to 100 mg/mL (≈ 169 to 423 mM) and the solubility ([1]; Polyethylene glyco-40 hydrogenated castor oil, 50 °C, organic solvent or mixture, vehicle Polyethylene glyco-40 hydrogenated castor oil) was 22.2 to 28.6 mg/mL (≈ 93.9 to 121 mM). For the same compound, the solubility ([1]; Polyethylene glycol 200, 25 °C, organic solvent or mixture, vehicle Polyethylene glycol 200, 25° C.) was 50 to 66.7 mg/mL (≈ 212 to 282 mM), the solubility ([1]; Polyethylene glycol 300, 25 °C, organic solvent or mixture, vehicle Polyethylene glycol 300, 25° C.) was 40 to 66.7 mg/mL (≈ 169 to 282 mM) and the solubility ([1]; Polyethylene glycol 400, 25 °C, organic solvent or mixture, vehicle Polyethylene glycol 400, 25° C.) was 40 to 66.7 mg/mL (≈ 169 to 282 mM). The solubility ([1]; Polyethylene glycol 1500, 70 °C, organic solvent or mixture, vehicle Polyethylene glycol 1500, 70° C.) was 50 to 100 mg/mL (≈ 212 to 423 mM), the solubility ([1]; Polyethylene glycol 3350, 70 °C, organic solvent or mixture, vehicle Polyethylene glycol 3350, 70° C.) was 25 to 50 mg/mL (≈ 106 to 212 mM) and the solubility ([1]; Polyethylene glycol 6000, 70 °C, organic solvent or mixture, vehicle Polyethylene glycol 6000, 70° C.) was 25 to 50 mg/mL (≈ 106 to 212 mM). It also gave a solubility ([1]; Polyethylene glycol octadecyl ether, 25 °C, organic solvent or mixture, vehicle Polyethylene glycol octadecyl ether) of 10 to 11.1 mg/mL (≈ 42.3 to 47 mM), a solubility ([1]; Polyethylene glycol sorbitan monolaurate, 25 °C, organic solvent or mixture, vehicle Polyethylene glycol sorbitan monolaurate) of 12.5 to 14.3 mg/mL (≈ 52.9 to 60.5 mM) and a solubility ([1]; Polyoxy ethylene sorbitan monooleate, 25 °C, organic solvent or mixture, vehicle Polyoxy ethylene sorbitan monooleate) of 12.5 to 14.3 mg/mL (≈ 52.9 to 60.5 mM). The solubility ([1]; Polyoxy ethylene sorbitan monostearate, 25 °C, organic solvent or mixture, vehicle Polyoxy ethylene sorbitan monostearate) was 33.3 to 50 mg/mL (≈ 141 to 212 mM), the solubility ([1]; Polyoxyl 35 hydrogenated castor oil, 25 °C, organic solvent or mixture, vehicle Polyoxyl 35 hydrogenated castor oil) was 12.5 to 14.3 mg/mL (≈ 52.9 to 60.5 mM) and the solubility ([1]; Propylene glycol dicaprylate, 25 °C, oil or lipid, vehicle Propylene glycol dicaprylate) was < 5 mg/mL. The solubility ([1]; Propylene glycol monocaprylate type II, 25 °C, oil or lipid, vehicle Propylene glycol monocaprylate type II) was 12.5 to 25 mg/mL (≈ 52.9 to 106 mM), the solubility ([1]; Propylene glycol monolaurate, 25 °C, oil or lipid, vehicle Propylene glycol monolaurate) was 8.3 to 12.5 mg/mL (≈ 35.1 to 52.9 mM) and the solubility ([1]; Propylene glycol, 25 °C, organic solvent or mixture, vehicle Propylene glycol) was 40 to 66.7 mg/mL (≈ 169 to 282 mM). For the same compound, the solubility ([1]; Sorbitan monolaurate, 25 °C, oil or lipid, vehicle Sorbitan monolaurate) was < 5 mg/mL, the solubility ([1]; Sorbitane monooleate, 25 °C, oil or lipid, vehicle Sorbitane monooleate) was < 5 mg/mL and the solubility ([1]; Triethanolamine, 25 °C, organic solvent or mixture, vehicle Triethanolamine) was < 10 mg/mL. For the same compound, the solubility ([1]; Water, 25 °C, vehicle Water) was < 5 mg/mL, the solubility ([1]; White vaseline, 70 °C, oil or lipid, vehicle White vaseline) was < 5 mg/mL and the solubility ([1]; White wax, 70 °C, oil or lipid, vehicle White wax) was < 5 mg/mL. The solubility ([1]; d-a-tocopheryl polyethylene glycol 1000 succinate, 50 °C, oil or lipid, vehicle d-a-tocopheryl polyethylene glycol 1000 succinate) was < 10 mg/mL.
For C[C@@H]1C[C@H]2[C@@H]3CCC4=CC(=O)C=C[C@]4(C)[C@@]3(F)[C@@H](O)C[C@]2(C)[C@@]1(O)C(=O)CO [Dex, Dexamethasone], the “ear swelling (ear swelling response)” value ([2]; ICR mice, phorbol ester 5 μg/ear, result in words) was “significant decrease in ear swelling” and the “Suppression Rate: % suppression Vs G1-right ear” value ([2]; female ICR mice, phorbol ester (PMA) 5 μg/ear, topical treatment, ear thickness 6 hours after challenge, vs vehicle (Acetone) group) was 27.14%.
